Experimental data from PMC11434868, “Synthesis and Antiproliferative Effect of 3,4,5-Trimethoxylated Chalcones on Colorectal and Prostatic Cancer Cells” (Pharmaceuticals, 2024).
Read-outs that look alike come from different tables or passages of the source.

What was measured:
[1] = tested on: human PCa (DU145 and PC3) cell lines; assay: MTT assay, summary statements for PCa cells; type: cell-based; details: Homo sapiens, DU-145, DU145 and PC3, text summary; read-out: IC50 towards PCa cells
Procedure: (§1) Human CRC (HCT116 and HT-29) and PCa (DU145 and PC3) cell lines were purchased from the American Type Culture Collection (ATCC—LGC Standards, Molsheim, France). All cells were grown in RPMI 1640 medium supplemented with 10% FBS, 1% L-glutamine, 100 U/mL penicillin, and 100 μg/mL streptomycin. Cultures were maintained in a humidified atmosphere containing 5% CO2 at 37 °C. Cells were seeded in 75 cm^2 culture flasks at 1.2 × 10^4 cells/cm^2 for HCT116, DU145, and PC3 cells, and 2.0 × 10^4 for HT-29 cells. Cells were grown for 24 h in culture medium prior to exposure or not to obtain the synthesized compounds. Stock solutions (10^−2 M in DMSO) of each compound were diluted in culture medium to obtain appropriate final concentrations.
(§2) • (a) MTT assay: The antiproliferative effect of all compounds was determined using MTT assay (a metabolic activity test). Briefly, cells were seeded in 96-well culture plates at 4 × 10^3 cells/well for HCT116, PC3, and DU145 cells and 6 × 10^3 cells/well for HT-29 cells (100 µL/well), and grown for 24 h in culture medium prior to exposure or not to obtain compounds 1–15 with concentrations ranging from 5 nM to 50 μM. After 24 and 48 h of treatment, MTT (5 mg/mL in PBS) was added and incubated for another 3 h. MTT was then removed from the wells before adding 100 μL/well of DMSO. The optical density was detected with a microplate reader (Multiskan FC, Thermoscientific, Bordeaux, France) at 550 nm and cell viability was expressed as a percentage of each treatment condition compared to control cells. IC50 values were calculated for all compounds from the dose–response curve. Data are expressed as the arithmetic means ± standard error of the mean (SEM) of separate experiments. All experiments were performed at least in triplicate. • (b) Trypan blue dye exclusion method: Cells were grown for 24 h then treated with compounds 10 and 13 at indicated concentrations. After 48 h of treatment, cells were trypsinized and resuspended in complete medium. Each sample was mixed with Trypan blue solution (0.14% in HBSS, Invitrogen-GIBCO, ThermoFisher, Illkirch, France). Colored (non-viable) and dye-excluding (viable) cells were counted with the LUNA-II automated cell Counter (Logos Biosystems; MC2, Aubière, France). The control was normalized to 100% including viable and dead cells. The results indicated on the histograms were expressed as the percentage of cells compared to the control. IC50 values were determined from the percentages of viable cells compared to the control.

[2] = tested on: human CRC (HCT116 and HT-29) and human PCa (DU145 and PC3) cell lines; assay: MTT assay, summary statements over the cell lines; type: cell-based
Procedure: as §1, §2

IC50 [1] [µM]	IC50 ([2]; 48 h, read-out: IC50 towards the selected cell lines) [µM]	IC50 ([2]; Homo sapiens, 48 h, read-out: IC50 towards the selected cell lines) [µM]	IC50 ([2]; Homo sapiens, 48 h, read-out: IC50 over the four cell lines) [µM]	SMILES	viability at 10 µM ([2]; Homo sapiens, 48 h, from the concentration of 10 µM, whole cell lines) [%]	activity relative to chalcone 12 ([2]; comparison of IC50 values)
0.017 to 0.031	< 0.04	< 0.05		COc1cc(C(=O)/C=C/c2c[nH]c3ccccc23)cc(OC)c1OC [chalcone 10, (E)-3-(1H-indol-3-yl)-1-(3,4,5-trimethoxyphenyl)prop-2-en-1-one]		
			2.6 to 5.1	COc1cc(C(=O)/C=C/c2coc3ccc(C)cc3c2=O)cc(OC)c1OC [chalcone 13, (E)-6-methyl-3-(3-oxo-3-(3,4,5-trimethoxyphenyl)prop-1-en-1-yl)-4H-chromen-4-one]	< 10	four times more active
